Assay [1] has as its target T1, NIH-3T3 cells overexpressing human IGF-1R (Homo sapiens, UniProt P08069).
T1 construct: expressed in transfected cells; host or cells: NIH-3T3 (mouse fibroblasts)
Nature of the assay: IGF-1R cellular autophosphorylation (DELFIA). It is filed as cell-based. The method, boiled down:
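Receptor autophosphorylation measured by DELFIA, capturing IGF-1R or IRβ and detecting with europium anti-pTyr, reported as percent of IGF-1- or insulin-stimulated signal. Compounds (30 uM to 1.5 nM) added 2 h before ligand, then 15 min stimulation (IGF-1 30 ng/ml or insulin 3 ug/ml).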

The test system of a further assay is NCI-H929. Nature of the assay: Inhibition of cell proliferation (CellTiter-Glo or InCell analyzer), NCI-H929. It is filed as cell-based. To be noted: Homo sapiens, 72 h / 3 days, values given as IC50 category. Put shortly: In one
For orientation: In ATP-based viability assays light output follows the ATP content of the culture.

A further assay has as its target ALK (Homo sapiens, UniProt Q9UM73). Nature of the assay: ALK enzyme assay (HTRF). Type of assay: biochemical. To be noted: 0.25 nM ALK, 15.0 μM ATP, values given as pIC50 category. The method, boiled down:
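Isolated ALK phosphorylates a biotinylated tyrosine peptide, 120 min at 20° C; anti-phosphotyrosine Eu-cryptate/streptavidin-XL665 HTRF read after 60 min with EDTA-containing detection mix.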
On the technique in general: In TR-FRET formats the signal depends on donor and acceptor labels being close together.

A word on the pIC50: it is −log10 of the IC50, conventionally taken in molar units.

pIC50: −log10 of the molar value.

T1 sequence (P08069 31-1367): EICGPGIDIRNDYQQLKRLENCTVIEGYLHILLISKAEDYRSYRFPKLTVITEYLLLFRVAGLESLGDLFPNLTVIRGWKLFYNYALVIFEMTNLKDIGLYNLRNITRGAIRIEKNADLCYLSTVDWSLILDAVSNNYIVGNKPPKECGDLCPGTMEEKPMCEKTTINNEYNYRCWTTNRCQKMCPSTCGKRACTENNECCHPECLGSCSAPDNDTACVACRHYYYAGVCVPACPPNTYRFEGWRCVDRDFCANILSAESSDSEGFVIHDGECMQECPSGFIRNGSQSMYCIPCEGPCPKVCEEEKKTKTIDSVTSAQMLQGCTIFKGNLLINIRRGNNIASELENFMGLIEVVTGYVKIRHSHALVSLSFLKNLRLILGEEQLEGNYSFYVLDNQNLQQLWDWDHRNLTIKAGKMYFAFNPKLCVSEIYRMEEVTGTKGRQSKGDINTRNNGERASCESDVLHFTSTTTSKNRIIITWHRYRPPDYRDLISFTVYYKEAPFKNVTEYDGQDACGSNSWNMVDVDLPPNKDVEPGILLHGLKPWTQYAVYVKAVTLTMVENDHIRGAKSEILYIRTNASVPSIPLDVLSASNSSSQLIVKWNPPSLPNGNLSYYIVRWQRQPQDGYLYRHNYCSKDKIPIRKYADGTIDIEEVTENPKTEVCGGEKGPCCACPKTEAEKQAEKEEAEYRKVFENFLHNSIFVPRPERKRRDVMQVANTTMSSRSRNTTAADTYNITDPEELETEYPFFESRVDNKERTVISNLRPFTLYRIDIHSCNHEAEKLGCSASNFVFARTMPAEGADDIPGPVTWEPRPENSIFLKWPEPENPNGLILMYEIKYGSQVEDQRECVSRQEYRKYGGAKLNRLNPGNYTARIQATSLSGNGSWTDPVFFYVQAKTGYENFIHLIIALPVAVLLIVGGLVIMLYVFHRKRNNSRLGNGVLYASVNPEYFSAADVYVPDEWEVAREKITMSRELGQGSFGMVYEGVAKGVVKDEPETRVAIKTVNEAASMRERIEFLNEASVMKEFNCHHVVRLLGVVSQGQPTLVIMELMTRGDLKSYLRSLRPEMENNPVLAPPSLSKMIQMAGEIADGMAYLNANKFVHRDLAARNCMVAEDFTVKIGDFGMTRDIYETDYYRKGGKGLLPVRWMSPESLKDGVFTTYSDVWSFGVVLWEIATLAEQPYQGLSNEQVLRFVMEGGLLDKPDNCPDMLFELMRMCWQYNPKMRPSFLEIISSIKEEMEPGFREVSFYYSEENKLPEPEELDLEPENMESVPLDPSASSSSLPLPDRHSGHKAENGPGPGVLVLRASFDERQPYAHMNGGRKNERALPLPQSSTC
Chain of ALK (Q9UM73 19-1620): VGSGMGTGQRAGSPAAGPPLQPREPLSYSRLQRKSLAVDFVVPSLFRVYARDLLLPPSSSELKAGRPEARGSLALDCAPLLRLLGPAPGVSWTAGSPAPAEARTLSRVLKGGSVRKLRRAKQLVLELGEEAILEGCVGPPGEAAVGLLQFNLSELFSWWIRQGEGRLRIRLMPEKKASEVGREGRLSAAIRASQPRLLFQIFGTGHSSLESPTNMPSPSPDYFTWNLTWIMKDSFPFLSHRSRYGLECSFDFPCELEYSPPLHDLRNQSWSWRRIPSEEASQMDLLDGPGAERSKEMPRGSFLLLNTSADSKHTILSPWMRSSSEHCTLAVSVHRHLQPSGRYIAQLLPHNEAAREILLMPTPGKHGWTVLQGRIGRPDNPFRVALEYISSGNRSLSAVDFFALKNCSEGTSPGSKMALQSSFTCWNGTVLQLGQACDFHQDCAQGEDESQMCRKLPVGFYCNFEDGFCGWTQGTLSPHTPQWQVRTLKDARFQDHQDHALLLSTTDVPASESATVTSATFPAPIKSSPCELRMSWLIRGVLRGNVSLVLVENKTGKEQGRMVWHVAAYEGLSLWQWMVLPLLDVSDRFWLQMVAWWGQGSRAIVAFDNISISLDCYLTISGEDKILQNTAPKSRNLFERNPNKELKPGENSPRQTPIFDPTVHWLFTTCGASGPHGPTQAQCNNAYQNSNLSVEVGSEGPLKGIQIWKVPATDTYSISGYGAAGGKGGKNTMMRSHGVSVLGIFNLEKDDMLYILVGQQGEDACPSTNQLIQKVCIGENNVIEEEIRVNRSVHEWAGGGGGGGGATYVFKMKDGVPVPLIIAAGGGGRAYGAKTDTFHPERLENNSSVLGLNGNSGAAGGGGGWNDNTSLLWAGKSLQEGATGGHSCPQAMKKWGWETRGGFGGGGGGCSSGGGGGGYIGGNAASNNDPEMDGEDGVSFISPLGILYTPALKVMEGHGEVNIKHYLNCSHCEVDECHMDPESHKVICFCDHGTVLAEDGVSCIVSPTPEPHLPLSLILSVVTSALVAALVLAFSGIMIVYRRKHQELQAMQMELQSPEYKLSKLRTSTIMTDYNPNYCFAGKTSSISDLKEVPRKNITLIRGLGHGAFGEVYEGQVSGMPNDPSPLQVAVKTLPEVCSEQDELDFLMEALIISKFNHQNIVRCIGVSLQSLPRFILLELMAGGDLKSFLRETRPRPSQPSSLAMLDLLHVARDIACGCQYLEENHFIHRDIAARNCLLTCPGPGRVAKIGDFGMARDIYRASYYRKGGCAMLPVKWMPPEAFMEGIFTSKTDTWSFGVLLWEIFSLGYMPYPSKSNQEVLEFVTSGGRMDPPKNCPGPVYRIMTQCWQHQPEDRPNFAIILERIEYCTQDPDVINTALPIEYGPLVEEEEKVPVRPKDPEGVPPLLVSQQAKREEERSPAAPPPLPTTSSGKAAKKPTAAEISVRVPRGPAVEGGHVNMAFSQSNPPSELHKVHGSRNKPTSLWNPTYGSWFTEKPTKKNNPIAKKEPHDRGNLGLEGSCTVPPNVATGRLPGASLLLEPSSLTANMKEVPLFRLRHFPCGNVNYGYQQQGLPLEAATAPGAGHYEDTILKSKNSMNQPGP

Regarding `COc1cc(N2CCCN(C)CC2)ccc1Nc1nc(Nc2cccc(F)c2C(N)=O)c2cc[nH]c2n1` [Example 209, 2-fluoro-6-[(2-{[4-(4-methylhexahydro-1H-1,4-diazepin-1-yl)-2-(methyloxy)phenyl]amino}-1H-pyrrolo[2,3-d]pyrimidin-4-yl)amino]benzamide], the pIC50 is 6.30 to 7.00 in assay [1], over 6.60 with NCI-H929 and 9.00 to 9.60 at ALK.
With `COc1cc(N2CCC(N3CCN(CCF)CC3)CC2)ccc1Nc1nc(Nc2cccc(F)c2C(N)=O)c2cc[nH]c2n1` [Example 114, 2-fluoro-6-[(2-{[4-{4-[4-(2-fluoroethyl)-1-piperazinyl]-1-piperidinyl}-2-(methyloxy)phenyl]amino}-1H-pyrrolo[2,3-d]pyrimidin-4-yl)amino]benzamide], the negative-log IC50 (pIC50) in assay [1] was over 7.00; in the assay on NCI-H929 it was over 6.60; at ALK it was 8.40 to 8.90.
On to `COc1cc2c(cc1Nc1nc(Nc3cccc(F)c3C(=O)NCC(C)C)c3cc[nH]c3n1)N(C(=O)CN(C)C)CC2` [Example 157, 2-[(2-{[1-(N,N-dimethylglycyl)-5-(methyloxy)-2,3-dihydro-1H-indol-6-yl]amino}-1H-pyrrolo[2,3-d]pyrimidin-4-yl)amino]-6-fluoro-N-(2-methylpropyl)benzamide], for which the results for the pIC50 (in assay [1]; in the assay with NCI-H929; at ALK) were 6.30 to 7.00, 6.00 to 6.60 and 8.40 to 8.90, respectively.
Consider `CCN(C)CC(=O)N1CCc2cc(OC)c(Nc3nc(Nc4cccc(F)c4C(N)=O)c4cc[nH]c4n3)cc21` [Example 166, 2-[(2-{[1-(N-ethyl-N-methylglycyl)-5-(methyloxy)-2,3-dihydro-1H-indol-6-yl]amino}-1H-pyrrolo[2,3-d]pyrimidin-4-yl)amino]-6-fluorobenzamide], for which the pIC50 is over 7.00 in assay [1], over 6.60 in the assay with NCI-H929 and 8.40 to 8.90 against ALK.
Taken in the same sequence, the figures for `COc1cc2c(cc1Nc1nc(Nc3ccc(F)c(F)c3C(N)=O)c3cc[nH]c3n1)N(C(=O)CN(C)C)CCC2` [Example 162, 6-[(2-{[1-(N,N-dimethylglycyl)-6-(methyloxy)-1,2,3,4-tetrahydro-7-quinolinyl]amino}-1H-pyrrolo[2,3-d]pyrimidin-4-yl)amino]-2,3-difluorobenzamide] were over 7.00, over 6.60 and 8.40 to 8.90.
On to `COc1cc2c(cc1Nc1nc(Nc3cc(F)cc(F)c3C(=O)NCC(C)C)c3cc[nH]c3n1)N(C(=O)CN(C)C)CC2` [Example 154, 2-[(2-{[1-(N,N-dimethylglycyl)-5-(methyloxy)-2,3-dihydro-1H-indol-6-yl]amino}-1H-pyrrolo[2,3-d]pyrimidin-4-yl)amino]-4,6-difluoro-N-(2-methylpropyl)benzamide], for which the pIC50 in assay [1] is 6.30 to 7.00; with NCI-H929 it was 6.00 to 6.60; on ALK, 8.40 to 8.90.
For `CNC(=O)c1c(F)cccc1Nc1nc(Nc2cc3c(cc2OC)CCN3C(=O)CN2CCCC2)nc2[nH]ccc12` [Example 139, 2-fluoro-N-methyl-6-[(2-{[5-(methyloxy)-1-(1-pyrrolidinylacetyl)-2,3-dihydro-1H-indol-6-yl]amino}-1H-pyrrolo[2,3-d]pyrimidin-4-yl)amino]benzamide], the figures for the pIC50 (in assay [1]; with NCI-H929; on ALK) were over 7.00, over 6.60 and 9.00 to 9.60, respectively.
For `CCN(CCO)CC(=O)N1CCc2cc(OC)c(Nc3nc(Nc4cccc(F)c4C(N)=O)c4cc[nH]c4n3)cc21` [Example 177, 2-[(2-{[1-[N-ethyl-N-(2-hydroxyethyl)glycyl]-5-(methyloxy)-2,3-dihydro-1H-indol-6-yl]amino}-1H-pyrrolo[2,3-d]pyrimidin-4-yl)amino]-6-fluorobenzamide], in that order: 6.30 to 7.00, 6.00 to 6.60 and 8.40 to 8.90.
With `CNCC(=O)N1CCc2cc(OC)c(Nc3nc(Nc4cccc(F)c4C(N)=O)c4cc[nH]c4n3)cc21` [Example 142, 2-fluoro-6-[(2-{[1-(N-methylglycyl)-5-(methyloxy)-2,3-dihydro-1H-indol-6-yl]amino}-1H-pyrrolo[2,3-d]pyrimidin-4-yl)amino]benzamide], the pIC50 in assay [1] was over 7.00; in the assay with NCI-H929, 6.00 to 6.60; against ALK it was 8.40 to 8.90.
Take `COc1cc2c(cc1Nc1nc(Nc3cccc(F)c3C(N)=O)c3cc[nH]c3n1)CN(C(C)C)CC2` [Example 236, 2-fluoro-6-[(2-{[2-(1-methylethyl)-6-(methyloxy)-1,2,3,4-tetrahydro-7-isoquinolinyl]amino}-1H-pyrrolo[2,3-d]pyrimidin-4-yl)amino]benzamide]: the pIC50 was 6.30 to 7.00 in assay [1], over 6.60 with NCI-H929 and 8.40 to 8.90 against ALK.
Turning to `CNC(=O)c1c(F)cccc1Nc1nc(Nc2cc3c(cc2OC)CCCN3C(=O)CN(C)C)nc2[nH]ccc12` [Example 212, 2-[(2-{[1-(N,N-dimethylglycyl)-6-(methyloxy)-1,2,3,4-tetrahydro-7-quinolinyl]amino}-1H-pyrrolo[2,3-d]pyrimidin-4-yl)amino]-6-fluoro-N-methylbenzamide], the pIC50 in assay [1] is 6.30 to 7.00; in the assay on NCI-H929, over 6.60; on ALK it was 8.40 to 8.90.
